Assay results as given in ChEMBL document CHEMBL5143744, “Discovery of Tenapanor: A First-in-Class Minimally Systemic Inhibitor of Intestinal Na+/H+ Exchanger Isoform 3” (ACS Med Chem Lett, 2022).
Active and inactive are the calls of the source. The calls are words filed in the database; no cut-off is given here.

What was measured:
[1] = In vivo inhibition of NEH3 in Sprague-Dawley rat assessed as fecal form score at 3 mg/kg, po administered via gavage measured after 6 hrs; assay type: functional
[2] = In vivo inhibition of NEH3 in Sprague-Dawley rat assessed as fecal water content at 3 mg/kg, po administered via gavage measured after 6 hrs; assay type: functional; set-up: scale not given: the % may be the effect or the level left
[3] = In vivo inhibition of NEH3 in Sprague-Dawley rat assessed as sodium excretion in urine at 3 mg/kg, po administered via gavage measured after 16 hrs by ion chromatography relative to control; set-up: scale not given: the % may be the effect or the level left
[4] = molecular target: Sodium/hydrogen exchanger 3 (Rattus norvegicus, UniProt P26433); experiment: Inhibition of rat NHE3 expressed in opossum kidney cells assessed as reduction in Na-HEPES buffer-mediated pH recovery in presence of NEH1 inhibitor ethyl isopropyl amiloride by BCECF-AM dye based fluorescence assay; assay type: cell-based, Kidney epithelial cell
Chain of Sodium/hydrogen exchanger 3 (Rattus norvegicus, UniProt P26433) (P26433 whole entry): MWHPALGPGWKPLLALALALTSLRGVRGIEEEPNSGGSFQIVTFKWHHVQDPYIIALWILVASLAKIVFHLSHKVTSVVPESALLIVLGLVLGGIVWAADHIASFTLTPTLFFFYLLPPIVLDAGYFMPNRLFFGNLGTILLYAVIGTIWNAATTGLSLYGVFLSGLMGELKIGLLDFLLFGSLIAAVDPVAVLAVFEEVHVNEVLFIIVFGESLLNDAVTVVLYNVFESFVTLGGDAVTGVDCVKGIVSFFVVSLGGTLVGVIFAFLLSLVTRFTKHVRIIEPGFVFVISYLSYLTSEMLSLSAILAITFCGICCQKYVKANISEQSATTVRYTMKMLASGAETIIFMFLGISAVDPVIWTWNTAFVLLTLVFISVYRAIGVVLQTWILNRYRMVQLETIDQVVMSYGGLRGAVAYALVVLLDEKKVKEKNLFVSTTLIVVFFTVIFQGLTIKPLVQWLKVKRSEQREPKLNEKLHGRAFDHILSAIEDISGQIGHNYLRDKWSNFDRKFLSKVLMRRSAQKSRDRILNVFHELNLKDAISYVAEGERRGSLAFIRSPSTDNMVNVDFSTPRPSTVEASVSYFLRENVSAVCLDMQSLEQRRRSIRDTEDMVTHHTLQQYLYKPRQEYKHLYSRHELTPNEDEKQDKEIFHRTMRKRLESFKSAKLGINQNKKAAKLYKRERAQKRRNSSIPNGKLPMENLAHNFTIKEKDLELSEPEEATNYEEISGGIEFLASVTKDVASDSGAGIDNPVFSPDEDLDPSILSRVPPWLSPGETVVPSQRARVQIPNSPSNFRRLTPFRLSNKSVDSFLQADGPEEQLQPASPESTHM

[5] = In vivo inhibition of NEH3 in Sprague-Dawley rat assessed as increase in fecal water content at 0.1 to 3 mg/kg, po administered via gavage measured after 6 hrs; assay type: functional; set-up: scale not given: the % may be the effect or the level left; details: dose 0.1-3 mg/kg
[6] = Drug metabolism in Sprague-Dawley rat feces at 0.1 mg/kg, po administered via gavage measured after 72 hrs by LC-MS/MS analysis; assay type: ADME, organism-based; details: in vivo
[7] = molecular target: T1, Sodium/hydrogen exchanger 3 (Homo sapiens, UniProt P48764); experiment: Inhibition of human NHE3 expressed in opossum kidney cells assessed as reduction in Na-HEPES buffer-mediated pH recovery in presence of NEH1 inhibitor ethyl isopropyl amiloride by BCECF-AM dye based fluorescence assay; assay type: cell-based, Kidney epithelial cell
T1 sequence (P48764 whole entry): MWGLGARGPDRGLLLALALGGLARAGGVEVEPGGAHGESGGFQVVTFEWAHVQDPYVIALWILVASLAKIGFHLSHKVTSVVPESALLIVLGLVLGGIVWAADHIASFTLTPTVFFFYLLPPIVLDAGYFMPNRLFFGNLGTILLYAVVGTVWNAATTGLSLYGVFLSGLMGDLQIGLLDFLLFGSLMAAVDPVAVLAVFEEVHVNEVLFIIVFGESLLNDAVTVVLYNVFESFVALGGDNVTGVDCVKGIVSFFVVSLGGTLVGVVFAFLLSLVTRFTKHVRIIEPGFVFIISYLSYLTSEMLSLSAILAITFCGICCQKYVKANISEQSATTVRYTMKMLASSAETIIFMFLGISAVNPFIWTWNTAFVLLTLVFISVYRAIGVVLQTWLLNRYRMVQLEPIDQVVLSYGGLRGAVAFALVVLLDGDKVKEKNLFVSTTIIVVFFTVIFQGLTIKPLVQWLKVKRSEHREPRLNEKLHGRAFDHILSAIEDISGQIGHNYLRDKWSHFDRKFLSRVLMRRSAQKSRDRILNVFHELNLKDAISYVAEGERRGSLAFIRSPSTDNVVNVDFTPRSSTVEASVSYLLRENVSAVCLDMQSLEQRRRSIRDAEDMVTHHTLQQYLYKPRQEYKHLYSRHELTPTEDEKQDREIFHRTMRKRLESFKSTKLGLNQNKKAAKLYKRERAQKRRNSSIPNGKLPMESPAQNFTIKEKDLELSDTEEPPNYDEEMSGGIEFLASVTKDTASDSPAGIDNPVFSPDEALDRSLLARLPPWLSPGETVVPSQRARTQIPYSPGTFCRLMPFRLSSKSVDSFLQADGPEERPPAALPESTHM

Rattus norvegicus [8] = experiment: In vivo inhibition of NEH3 in Sprague-Dawley rat assessed as reduction in sodium excretion in urine at 0.1 to 3 mg/kg, po administered via gavage measured after 16 hrs by ion chromatography; assay type: functional, organism-based; details: dose 0.1-3 mg/kg
[9] = Cmax in Sprague-Dawley rat at 30 mg/kg, po administered via gavage by LC-MS/MS analysis; assay type: ADME, organism-based; set-up: dose 30 mg/kg, route po; details: in vivo
[10] = Drug recovery in Sprague-Dawley rat feces at 0.1 mg/kg, po administered via gavage measured after 72 hrs by LC-MS/MS analysis; assay type: ADME, organism-based; details: faeces, read-out: Drug recovery
hERG (KCNH2) = hERG (KCNH2) (Homo sapiens, UniProt Q12809); experiment: Inhibition of human ERG at 10 uM relative to control; assay type: toxicity
Chain of hERG (KCNH2) (Q12809 whole entry): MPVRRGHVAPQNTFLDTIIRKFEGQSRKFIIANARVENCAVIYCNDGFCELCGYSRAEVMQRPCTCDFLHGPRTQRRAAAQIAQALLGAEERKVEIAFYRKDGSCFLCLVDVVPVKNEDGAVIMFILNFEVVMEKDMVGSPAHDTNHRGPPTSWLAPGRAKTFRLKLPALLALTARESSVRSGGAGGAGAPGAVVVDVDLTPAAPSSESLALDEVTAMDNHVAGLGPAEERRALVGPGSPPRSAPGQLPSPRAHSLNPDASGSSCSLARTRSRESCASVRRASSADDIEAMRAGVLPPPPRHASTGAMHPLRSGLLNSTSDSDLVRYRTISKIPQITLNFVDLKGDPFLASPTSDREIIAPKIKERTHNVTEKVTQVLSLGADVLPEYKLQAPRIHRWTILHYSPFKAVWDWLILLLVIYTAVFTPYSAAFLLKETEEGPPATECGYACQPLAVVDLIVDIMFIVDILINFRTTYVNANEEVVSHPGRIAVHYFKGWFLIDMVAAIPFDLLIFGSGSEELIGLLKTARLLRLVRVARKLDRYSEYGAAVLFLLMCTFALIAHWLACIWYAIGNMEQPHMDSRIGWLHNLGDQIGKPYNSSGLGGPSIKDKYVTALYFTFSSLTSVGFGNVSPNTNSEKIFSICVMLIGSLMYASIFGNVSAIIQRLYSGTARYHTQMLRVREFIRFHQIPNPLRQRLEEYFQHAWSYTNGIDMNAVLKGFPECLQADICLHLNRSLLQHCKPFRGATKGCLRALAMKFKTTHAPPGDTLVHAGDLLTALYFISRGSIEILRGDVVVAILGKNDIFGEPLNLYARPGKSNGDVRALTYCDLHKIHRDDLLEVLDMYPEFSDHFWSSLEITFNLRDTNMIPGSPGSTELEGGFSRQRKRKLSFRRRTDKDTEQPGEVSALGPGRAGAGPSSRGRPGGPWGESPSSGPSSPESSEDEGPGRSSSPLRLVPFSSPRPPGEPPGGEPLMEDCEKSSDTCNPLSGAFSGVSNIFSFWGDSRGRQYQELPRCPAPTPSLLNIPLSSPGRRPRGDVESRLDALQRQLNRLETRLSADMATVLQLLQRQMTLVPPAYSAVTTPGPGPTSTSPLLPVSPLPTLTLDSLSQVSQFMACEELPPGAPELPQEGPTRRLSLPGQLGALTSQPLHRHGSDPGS

[11] = Drug metabolism in Sprague-Dawley rat at 30 mg/kg, po administered via gavage by LC-MS/MS analysis; assay type: ADME, organism-based; details: in vivo
[12] = Cmax in Sprague-Dawley rat at 1.5 mg/kg, po administered via gavage by LC-MS/MS analysis; assay type: ADME, organism-based; set-up: dose 1.5 mg/kg, route po; details: in vivo
Rattus norvegicus [13] = experiment: In vivo inhibition of NEH3 in Sprague-Dawley rat assessed as increase in cecum water content at 10 mg/kg, po administered via gavage measured after 6 hrs; assay type: functional, organism-based
Rattus norvegicus [14] = experiment: In vivo inhibition of NEH3 in Sprague-Dawley rat assessed as increase in colon water content at 10 mg/kg, po administered via gavage measured after 6 hrs; assay type: functional, organism-based
[15] = AUC in Sprague-Dawley rat at 1.5 mg/kg, po administered via gavage by LC-MS/MS analysis; details: in vivo
[16] = Drug recovery in Sprague-Dawley rat feces at 3 mg/kg, po administered via gavage measured after 64 hrs by LC-MS/MS analysis; assay type: ADME, organism-based; details: faeces, read-out: Drug recovery
[17] = Drug metabolism in Sprague-Dawley rat feces at 3 mg/kg, po administered via gavage measured after 64 hrs by LC-MS/MS analysis; assay type: ADME, organism-based; details: in vivo
[18] = AUC in Sprague-Dawley rat at 11 mg/kg, po administered via gavage by LC-MS/MS analysis; details: in vivo
[19] = Apparent permeability in MDCK cells at 10 uM measured after 60 mins by LC-MS/MS analysis; assay type: ADME, cell-based, Canis lupus familiaris; details: dog, 1 h
[20] = Oral bioavailability in Sprague-Dawley rat at 11 mg/kg administered via gavage by LC-MS/MS analysis; assay type: ADME, organism-based; details: in vivo
[21] = Cmax in Sprague-Dawley rat at 11 mg/kg, po administered via gavage by LC-MS/MS analysis; assay type: ADME, organism-based; set-up: dose 11 mg/kg, route po; details: in vivo

SMILES | Activity [1] | Activity [2] [%] | Activity [3] [%] | IC50 [4] [nM] | IC50 [7] [nM] | other results
CN1Cc2c(Cl)cc(Cl)cc2C(c2cccc(S(=O)(=O)NCCOCCOCCOCCNC(=O)NCCCCNC(=O)NCCOCCOCCOCCNS(=O)(=O)c3cccc(C4CN(C)Cc5c(Cl)cc(Cl)cc54)c3)c2)C1 (racemic) | 3 | 57 | 50 |  |  | 
CN1Cc2c(Cl)cc(Cl)cc2C(c2cccc(S(=O)(=O)NCCOCCOCCNC(=O)NCCCCNC(=O)NCCOCCOCCNS(=O)(=O)c3cccc(C4CN(C)Cc5c(Cl)cc(Cl)cc54)c3)c2)C1 (racemic) | 4.5 | 64 | 22 | 3.16 |  | 
CN1Cc2c(Cl)cc(Cl)cc2[C@H](c2cccc(S(=O)(=O)NCCOCCOCCNC(=O)Nc3ccc(NC(=O)NCCOCCOCCNS(=O)(=O)c4cccc([C@@H]5CN(C)Cc6c(Cl)cc(Cl)cc65)c4)cc3)c2)C1 |  |  |  |  | 1.58 | Activity [5]: 10%; Drug metabolism [6]: Metabolite_Notdetected; inhibition (Rattus norvegicus [8]): Active; Cmax [9]: < 2 ng/mL; dose excreted at 72 h [10]: 93%; inhibition at 10 µM (hERG (KCNH2)): < 50%; Drug metabolism [11]: Metabolite_Notdetected
CN1Cc2c(Cl)cc(Cl)cc2[C@H](c2cccc(NC(=O)[C@H](O)[C@@H](O)[C@H](O)[C@H](O)CO)c2)C1 |  |  |  | 39.8 | 25.1 | Cmax [12]: 6 ng/mL; inhibition (Rattus norvegicus [13]): Active; inhibition (Rattus norvegicus [14]): Active; AUC [15]: 12 ng·h/mL
CN1Cc2c(Cl)cc(Cl)cc2C(c2ccc(S(=O)(=O)NCCOCCOCCNC(=O)NCCCCNC(=O)NCCOCCOCCNS(=O)(=O)c3ccc(C4CN(C)Cc5c(Cl)cc(Cl)cc54)cc3)cc2)C1 (racemic) | 3 | 60 | 14 |  |  | 
CN(CC(=O)NCCOCCOCCNS(=O)(=O)c1ccc(C2CN(C)Cc3c(Cl)cc(Cl)cc32)cc1)CC(=O)NCCOCCOCCNS(=O)(=O)c1ccc(C2CN(C)Cc3c(Cl)cc(Cl)cc32)cc1 (racemic) | 3 | 57 | 45 |  |  | 
CN1Cc2c(Cl)cc(Cl)cc2[C@H](c2cccc(S(=O)(=O)NCCOCCOCCOCCNC(=O)NCCOCCOCCOCCNS(=O)(=O)c3cccc([C@@H]4CN(C)Cc5c(Cl)cc(Cl)cc54)c3)c2)C1 |  |  |  |  |  | dose excreted at 64 h [16]: 82%; Activity [5]: 10%; Drug metabolism [17]: Metabolite_Detected; inhibition (Rattus norvegicus [8]): Active; Cmax ([9]; Sprague-Dawley, read-out: Cmax): < 5 ng/mL; inhibition at 10 µM (hERG (KCNH2)): < 50%; Drug metabolism [11]: Metabolite_Notdetected
CN1Cc2c(Cl)cc(Cl)cc2C(c2cccc(S(=O)(=O)NCCCP(=O)(O)O)c2)C1 (racemic) |  |  |  | 63.1 | 5010 | 
CN1Cc2c(Cl)cc(Cl)cc2C(c2cccc(S(=O)(=O)NCCCS(=O)(=O)O)c2)C1 (racemic) |  |  |  | 50.1 | 1580 | 
CN1Cc2c(Cl)cc(Cl)cc2C(c2cccc(S(N)(=O)=O)c2)C1 (racemic) |  |  |  |  | 631 | AUC [18]: 522 ng·h/mL; Papp [19]: >= 10 10^-6 cm/s; F [20]: 98%; Cmax [21]: 159 ng/mL
CN1Cc2c(Cl)cc(Cl)cc2C(c2cccc(NC(=O)[C@H](O)[C@@H](O)[C@H](O)[C@H](O)CO)c2)C1 (mixture of isomers) |  |  |  | 39.8 | 50.1 | 
CN1Cc2c(Cl)cc(Cl)cc2C(c2cccc(S(=O)(=O)NCC(=O)O)c2)C1 (racemic) |  |  |  | 100 | 100 | 
CN1Cc2c(Cl)cc(Cl)cc2[C@H](c2cccc(S(=O)(=O)NCCOCCOCCNC(=O)CCC(=O)NCCOCCOCCNS(=O)(=O)c3cccc([C@@H]4CN(C)Cc5c(Cl)cc(Cl)cc54)c3)c2)C1 |  |  |  |  |  | Activity [5]: 10%; Drug metabolism [6]: Metabolite_Notdetected; inhibition (Rattus norvegicus [8]): Active; Cmax ([9]; Sprague-Dawley, read-out: Cmax): < 2 ng/mL; dose excreted at 72 h [10]: 46%; inhibition at 10 µM (hERG (KCNH2)): < 50%; Drug metabolism [11]: Metabolite_Notdetected
CN1Cc2c(Cl)cc(Cl)cc2[C@H](c2cccc(S(=O)(=O)NCCOCCOCCOCCNC(=O)NCCCNC(=O)NCCOCCOCCOCCNS(=O)(=O)c3cccc([C@@H]4CN(C)Cc5c(Cl)cc(Cl)cc54)c3)c2)C1 |  |  |  |  |  | dose excreted at 64 h [16]: 96%; Drug metabolism [17]: Metabolite_Notdetected; Cmax ([9]; Sprague-Dawley, read-out: Cmax): < 15 ng/mL; inhibition at 10 µM (hERG (KCNH2)): < 50%; Drug metabolism [11]: Metabolite_Notdetected
CN1Cc2c(Cl)cc(Cl)cc2C(c2cccc(S(=O)(=O)NCCOCCOCCNC(=O)NCCOCCOCCNS(=O)(=O)c3cccc(C4CN(C)Cc5c(Cl)cc(Cl)cc54)c3)c2)C1 (stereo not given) | 1 | 50 | 100 |  | 2000 | AUC [18]: < 19 ng·h/mL; Cmax [21]: < 5 ng/mL
CN1Cc2c(Cl)cc(Cl)cc2C(c2cccc(S(=O)(=O)NCCOCCOCCOCCNC(=O)Nc3ccc(NC(=O)NCCOCCOCCOCCNS(=O)(=O)c4cccc(C5CN(C)Cc6c(Cl)cc(Cl)cc65)c4)cc3)c2)C1 (racemic) | 2 | 54 | 42 | 6310 |  | 
CN1Cc2c(Cl)cc(Cl)cc2C(c2ccc(S(=O)(=O)NCCOCCOCCNC(=O)Nc3ccc(NC(=O)NCCOCCOCCNS(=O)(=O)c4ccc(C5CN(C)Cc6c(Cl)cc(Cl)cc65)cc4)cc3)cc2)C1 (racemic) | 3 | 58 | 29 |  |  | 
CN1Cc2c(Cl)cc(Cl)cc2C(c2ccc(S(=O)(=O)NCCOCCOCCNC(=O)CCC(=O)NCCOCCOCCNS(=O)(=O)c3ccc(C4CN(C)Cc5c(Cl)cc(Cl)cc54)cc3)cc2)C1 (racemic) | 3.5 | 60 | 23 |  |  | 
CN1Cc2c(Cl)cc(Cl)cc2C(c2cccc(S(=O)(=O)NCCOCCOCCNC(=O)Nc3ccc(NC(=O)NCCOCCOCCNS(=O)(=O)c4cccc(C5CN(C)Cc6c(Cl)cc(Cl)cc65)c4)cc3)c2)C1 (racemic) | 3 | 60 | 32 | 7.94 |  | 
CN1Cc2c(Cl)cc(Cl)cc2C(c2cccc(S(=O)(=O)NCCOCCOCCNS(=O)(=O)c3cccc(C4CN(C)Cc5c(Cl)cc(Cl)cc54)c3)c2)C1 (racemic) |  |  |  |  | 5010 | 
CN1Cc2c(Cl)cc(Cl)cc2[C@@H](c2cccc(NC(=O)[C@H](O)[C@@H](O)[C@H](O)[C@H](O)CO)c2)C1 |  |  |  | 7940 | 2510 | 
CN1Cc2c(Cl)cc(Cl)cc2C(c2ccc(S(=O)(=O)NCCOCCOCCNC(=O)COCC(=O)NCCOCCOCCNS(=O)(=O)c3ccc(C4CN(C)Cc5c(Cl)cc(Cl)cc54)cc3)cc2)C1 (racemic) | 2.5 | 59 | 29 |  |  | 
